In ChEMBL document CHEMBL1154101, “Purinergic P2X(7) receptor antagonists: Chemistry and fundamentals of biological screening” (Bioorg Med Chem, 2009):

Key:
P2X purinoceptor 7 [1] = target: T1, P2X purinoceptor 7 (Rattus norvegicus, UniProt Q64663); experiment: Binding affinity at rat P2X7 receptor
T1 sequence (Q64663 whole entry): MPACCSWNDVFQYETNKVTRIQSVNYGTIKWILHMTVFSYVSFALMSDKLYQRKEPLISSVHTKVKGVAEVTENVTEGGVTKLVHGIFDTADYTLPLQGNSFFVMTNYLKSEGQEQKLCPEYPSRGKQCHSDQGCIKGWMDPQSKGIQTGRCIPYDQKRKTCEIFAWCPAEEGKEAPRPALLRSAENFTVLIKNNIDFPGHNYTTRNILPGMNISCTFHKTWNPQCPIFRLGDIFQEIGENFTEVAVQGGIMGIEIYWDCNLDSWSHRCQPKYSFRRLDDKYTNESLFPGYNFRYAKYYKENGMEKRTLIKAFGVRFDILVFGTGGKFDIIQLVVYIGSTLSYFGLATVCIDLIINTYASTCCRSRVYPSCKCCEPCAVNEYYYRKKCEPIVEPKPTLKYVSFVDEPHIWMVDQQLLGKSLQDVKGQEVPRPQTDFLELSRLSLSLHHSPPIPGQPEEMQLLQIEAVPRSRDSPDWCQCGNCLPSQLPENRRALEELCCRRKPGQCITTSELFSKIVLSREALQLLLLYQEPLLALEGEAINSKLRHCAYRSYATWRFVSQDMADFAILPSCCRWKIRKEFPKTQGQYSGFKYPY

P2X purinoceptor 7 [2] = target: T2, P2X purinoceptor 7 (Homo sapiens, UniProt Q99572); experiment: Antagonist activity at P2X7 receptor in human THP1 cells assessed as inhibition of BzATP-induced pore formation; type: functional, cell-based, THP-1
T2 sequence (Q99572 whole entry): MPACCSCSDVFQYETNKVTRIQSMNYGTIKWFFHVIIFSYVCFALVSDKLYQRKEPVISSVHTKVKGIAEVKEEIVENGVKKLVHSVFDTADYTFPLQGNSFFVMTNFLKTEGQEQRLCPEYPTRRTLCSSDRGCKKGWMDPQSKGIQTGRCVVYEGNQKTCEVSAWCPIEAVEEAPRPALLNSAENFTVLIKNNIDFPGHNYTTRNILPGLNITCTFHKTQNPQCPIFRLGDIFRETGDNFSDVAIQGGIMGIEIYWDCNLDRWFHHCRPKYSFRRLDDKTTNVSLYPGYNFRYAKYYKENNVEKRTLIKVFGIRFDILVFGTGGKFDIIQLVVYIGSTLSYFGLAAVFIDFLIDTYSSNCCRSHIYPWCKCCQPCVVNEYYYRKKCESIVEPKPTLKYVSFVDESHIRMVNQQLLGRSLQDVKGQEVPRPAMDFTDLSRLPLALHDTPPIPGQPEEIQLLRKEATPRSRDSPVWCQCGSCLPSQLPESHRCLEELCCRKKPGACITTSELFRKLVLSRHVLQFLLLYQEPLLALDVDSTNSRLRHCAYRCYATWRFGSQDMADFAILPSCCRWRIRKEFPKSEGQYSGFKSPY

P2X purinoceptor 7 [3] = target: T2, P2X purinoceptor 7; experiment: Antagonist activity at human recombinant P2X7 receptor expressed in human 1321N1 cells assessed as inhibition of BzATP-induced pore formation flux by fluorometric assay; type: functional, cell-based
P2X purinoceptor 7 [4] = target: T2, P2X purinoceptor 7; experiment: Antagonist activity at human recombinant P2X7 receptor expressed in human THP1 cells assessed as inhibition of BzATP-induced IL1-beta release by enzyme-linked immunosorbent assay; type: functional, cell-based, THP-1

Row | SMILES | IC50 (P2X purinoceptor 7 [2]) [nM] | further results
1 | [3H]c1ccc([C@H](C)N/C(=N/C#N)Nc2cccc3ncccc23)cc1 |  | IC50 (P2X purinoceptor 7 [1]): 10 nM
2 | COc1ccc(CC(=O)NC(N/C(=N/C#N)Nc2cccc3ncccc23)C(C)(C)C)cc1OC (stereo unspecified) |  | IC50 (P2X purinoceptor 7 [3]): 92 nM; IC50 (P2X purinoceptor 7 [4]): 156 nM
3 | CN([C@@H](Cc1ccc(OS(=O)(=O)c2cccc3cnccc23)cc1)C(=O)N1CCN(c2ccccc2)CC1)S(=O)(=O)c1cccc2cnccc12 | 300 | 

Continued, in another order:

Row | IC50 (P2X purinoceptor 7 [2]) [nM] | SMILES | further results
4 | 1800 | N=C1N[C@@H]2O[C@@H]3NC(=N)N[C@]34[C@H]([C@H](CNC(=O)c3cc(Br)c(Br)[nH]3)[C@@H](CNC(=O)c3cc(Br)c(Br)[nH]3)[C@@H]4O[C@H]3[C@H](CNC(=O)c4cc(Br)c(Br)[nH]4)[C@@H](CNC(=O)c4cc(Br)c(Br)[nH]4)[C@H]4[C@]5(O)NC(=N)N[C@@H]5O[C@@H]5NC(=N)N[C@]534)[C@]2(O)N1 [STYLISSADINE B] | 
5 | 700 | N=C1N[C@@H]2O[C@@H]3NC(=N)N[C@]34[C@H]([C@H](CNC(=O)c3cc(Br)c(Br)[nH]3)[C@@H](CNC(=O)c3cc(Br)c(Br)[nH]3)[C@@H]4O[C@H]3[C@H](CNC(=O)c4cc(Br)c(Br)[nH]4)[C@@H](CNC(=O)c4cc(Br)c(Br)[nH]4)[C@@H]4[C@]5(O)NC(=N)N[C@@H]5O[C@@H]5NC(=N)N[C@]453)[C@]2(O)N1 [STYLISSADINE A] | 
